Measurements as given in PubChem BioAssay AID330 (DTP/NCI, 2004).
“And” between values parts separate entries of the source, which are not always exact repeats. Identical values can stand only once. Inconclusive results and toxic doses are left out.

Tested on: P388 leukemia ip, CD2F1 mice, survival T/C
Assay: NCI In Vivo Anticancer Drug Screen. Data for tumor model P388 Leukemia (intraperitoneal) in CD2F1 (CDF1) mice
Conditions: endpoint: median survival time, higher = longer survival
How it was run: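 Mice carrying the transplanted tumor received test compound or vehicle. Survival was recorded in each group, and the value is the treated-group measurement divided by that of the vehicle-treated control group.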

[1] = dose: 50.0 mg/kg/injection, schedule: Q01DX005 (ip), vehicle: saline with Tween-80
[2] = dose: 100.0 mg/kg/injection, schedule: Q01DX005 (ip), vehicle: saline with Tween-80
[3] = dose: 200.0 mg/kg/injection, schedule: Q01DX005 (ip), vehicle: saline with Tween-80
[4] = dose: 50.0 mg/kg/injection, schedule: Q01DX009 (ip), vehicle: saline with Tween-80
[5] = dose: 100.0 mg/kg/injection, schedule: Q01DX009 (ip), vehicle: saline with Tween-80
[6] = dose: 200.0 mg/kg/injection, schedule: Q01DX009 (ip), vehicle: saline with Tween-80
[7] = dose: 400.0 mg/kg/injection, schedule: Q01DX009 (ip), vehicle: saline with Tween-80
[8] = dose: 50.0 mg/kg/injection, schedule: Q01DX005 (ip), vehicle: Klucel (hydroxypropylcellulose) (HPC)
[9] = dose: 100.0 mg/kg/injection, schedule: Q01DX005 (ip), vehicle: Klucel (hydroxypropylcellulose) (HPC)
[10] = dose: 200.0 mg/kg/injection, schedule: Q01DX005 (ip), vehicle: Klucel (hydroxypropylcellulose) (HPC)
[11] = dose: 50.0 mg/kg/injection, schedule: Q04DX003 (ip), vehicle: saline
[12] = dose: 100.0 mg/kg/injection, schedule: Q04DX003 (ip), vehicle: saline
[13] = dose: 100.0 mg/kg/injection, schedule: Q04DX002 (ip), vehicle: saline
[14] = dose: 200.0 mg/kg/injection, schedule: Q04DX002 (ip), vehicle: saline
[15] = dose: 400.0 mg/kg/injection, schedule: Q04DX002 (ip), vehicle: saline
[16] = dose: 100.0 mg/kg/injection, schedule: Q01DX009 (ip), vehicle: saline
[17] = dose: 200.0 mg/kg/injection, schedule: Q01DX009 (ip), vehicle: saline
[18] = dose: 25.0 mg/kg/injection, schedule: Q01DX005 (ip), vehicle: Klucel (hydroxypropylcellulose) (HPC)
[19] = dose: 100.0 mg/kg/injection, schedule: Q04DX003 (ip), vehicle: saline with Tween-80
[20] = dose: 200.0 mg/kg/injection, schedule: Q04DX003 (ip), vehicle: saline with Tween-80
[21] = dose: 60.0 mg/kg/injection, schedule: Q01DX005 (ip), vehicle: saline with Tween-80
[22] = dose: 120.0 mg/kg/injection, schedule: Q01DX005 (ip), vehicle: saline with Tween-80
[23] = dose: 240.0 mg/kg/injection, schedule: Q01DX005 (ip), vehicle: saline with Tween-80

ClC1=NOC(c2ccccc2)C1 (stereo not drawn)
T/C (dose: 6.25 mg/kg/injection, schedule: Q01DX005 (ip), vehicle: distilled water + Tween-80): 110 % of control
T/C (dose: 12.5 mg/kg/injection, schedule: Q01DX005 (ip), vehicle: distilled water + Tween-80): 97 % of control
T/C (dose: 25.0 mg/kg/injection, schedule: Q01DX005 (ip), vehicle: distilled water + Tween-80): 100 % of control
T/C (dose: 50.0 mg/kg/injection, schedule: Q01DX005 (ip), vehicle: distilled water + Tween-80): 105 % of control and 107 % of control
T/C (dose: 100.0 mg/kg/injection, schedule: Q01DX005 (ip), vehicle: distilled water + Tween-80): 99 % of control
T/C (dose: 200.0 mg/kg/injection, schedule: Q01DX005 (ip), vehicle: distilled water + Tween-80): 108 % of control

CN(CC#CC#CCN(C)c1ccccc1)c1ccccc1
T/C [1]: 102 % of control
T/C [2]: 102 % of control
T/C [3]: 102 % of control

O=C1C=CC(=O)N1c1ccc(Cl)cc1Cl
T/C (dose: 3.12 mg/kg/injection, schedule: Q04DX003 (ip), vehicle: saline with Tween-80): 105 % of control
T/C (dose: 6.25 mg/kg/injection, schedule: Q04DX003 (ip), vehicle: saline with Tween-80): 109 % of control
T/C (dose: 12.5 mg/kg/injection, schedule: Q04DX003 (ip), vehicle: saline with Tween-80): 96 % of control

O=c1[nH][nH]c(=S)n1-c1ccccc1
T/C [4]: 98 % of control
T/C [5]: 101 % of control
T/C [6]: 94 % of control
T/C [7]: 88 % of control

O/N=C1\CCC2CCCCC12 (stereo not drawn)
T/C [8]: 98 % of control
T/C [9]: 102 % of control
T/C [10]: 107 % of control

CC1CC(C)/C(=N/NC(N)=S)C(C(O)CC2CC(=O)NC(=O)C2)C1 (stereo not drawn)
T/C [1]: 109 % of control
T/C [2]: 105 % of control
T/C [3]: 104 % of control

CCOC(=O)c1cc(Cl)cc2c(=O)c3c(O)c4[nH]c5c(C(=O)OCC)cc(Cl)cc5c(=O)c4c(O)c3[nH]c12
T/C (dose: 50.0 mg/kg/injection, schedule: Q01DX009 (ip), vehicle: Klucel (hydroxypropylcellulose) (HPC)): 97 % of control
T/C (dose: 100.0 mg/kg/injection, schedule: Q01DX009 (ip), vehicle: Klucel (hydroxypropylcellulose) (HPC)): 106 % of control

Cc1ccc(Cl)cc1S
T/C [11]: 95 % of control
T/C [12]: 95 % of control

CC(C)C1CCC2(C)OC2C1=O (stereo not drawn)
T/C (dose: 25.0 mg/kg/injection, schedule: Q04DX002 (ip), vehicle: saline): 100 % of control
T/C (dose: 50.0 mg/kg/injection, schedule: Q04DX002 (ip), vehicle: saline): 98 % of control
T/C [13]: 100 % of control and 101 % of control
T/C [14]: 100 % of control
T/C [15]: 112 % of control

CCCCCCCCCCCCOCC(O)Cn1cnc2c(N)ncnc21 (stereo not drawn)
T/C [8]: 98 % of control
T/C [9]: 94 % of control
T/C [10]: 94 % of control

CN(C)CCCNC1C(C2COC(C)(C)O2)OC2OC(C)(C)OC21 (stereo not drawn)
T/C [13]: 97 % of control
T/C [14]: 95 % of control
T/C [15]: 93 % of control

O=C(O)C1Oc2cc3ccccc3cc2O1
T/C (dose: 50.0 mg/kg/injection, schedule: Q01DX009 (ip), vehicle: saline): 90 % of control
T/C [16]: 90 % of control
T/C [17]: 97 % of control

CCN(CC)C(=Nc1ccccc1)NC#N
T/C [8]: 110 % of control
T/C [9]: 105 % of control
T/C [10]: 96 % of control

CCCCCCCCCCC(C)c1ccc(S(=O)(=O)O)cc1 (stereo not drawn)
T/C (dose: 50.0 mg/kg/injection, schedule: Q01DX001 (ip), vehicle: saline): 100 % of control
T/C (dose: 100.0 mg/kg/injection, schedule: Q01DX001 (ip), vehicle: saline): 90 % of control
T/C (dose: 200.0 mg/kg/injection, schedule: Q01DX001 (ip), vehicle: saline): 95 % of control

O=C1CSC(c2c(F)cccc2Cl)N1c1cnccn1 (stereo not drawn)
T/C [18]: 99 % of control
T/C [8]: 102 % of control
T/C [9]: 101 % of control
T/C [10]: 106 % of control

COc1ccc(/C=N/NC(N)=S)cc1
T/C [5]: 109 % of control
T/C [19]: 100 % of control
T/C [6]: 100 % of control
T/C [20]: 113 % of control
T/C [7]: 109 % of control
T/C (dose: 400.0 mg/kg/injection, schedule: Q04DX003 (ip), vehicle: saline with Tween-80): 109 % of control

Nc1ncnc2c1ncn2CCOCC(O)CO (stereo not drawn)
T/C [21]: 100 % of control
T/C [22]: 95 % of control
T/C [23]: 93 % of control

CCN(CC)CCOC(=O)Nc1cc(C)cc(C)c1
T/C [21]: 94 % of control
T/C [22]: 91 % of control

O=S(=O)([O-])[O-].OCCNCCNCC[OH2+].OCCNCCNCC[OH2+].[Ni+2]
T/C (dose: 12.5 mg/kg/injection, schedule: Q01DX009 (ip), vehicle: saline): 102 % of control
T/C (dose: 25.0 mg/kg/injection, schedule: Q01DX009 (ip), vehicle: saline): 93 % of control

CN(C)CCC[Si]1(C)c2ccccc2CCc2ccccc21
T/C (dose: 25.0 mg/kg/injection, schedule: Q04DX003 (ip), vehicle: saline): 104 % of control
T/C [11]: 105 % of control
T/C [12]: 109 % of control

CC(C)Sc1ncnc2nc[nH]c12
T/C [4]: 100 % of control
T/C [5]: 104 % of control
T/C [19]: 95 % of control
T/C [6]: 118 % of control
T/C [20]: 86 % of control

CN1C=C/C(=C/[N+](=O)[O-])N(C)C1=O
T/C [18]: 99 % of control
T/C [8]: 105 % of control
T/C [9]: 100 % of control
T/C [10]: 112 % of control

c1cc(Nc2ccc3c(c2)OCO3)c2cc(C3CCCCC3)ccc2n1
T/C [21]: 97 % of control
T/C [22]: 98 % of control
T/C [23]: 100 % of control

Cc1cc2c(=O)cc(-c3ccccc3Cl)oc2c(C#N)c1C
T/C (dose: 1.87 mg/kg/injection, schedule: Q01DX005 (ip), vehicle: Klucel (hydroxypropylcellulose) (HPC)): 95 % of control
T/C (dose: 3.75 mg/kg/injection, schedule: Q01DX005 (ip), vehicle: Klucel (hydroxypropylcellulose) (HPC)): 101 % of control
T/C (dose: 7.5 mg/kg/injection, schedule: Q01DX005 (ip), vehicle: Klucel (hydroxypropylcellulose) (HPC)): 117 % of control
T/C (dose: 60.0 mg/kg/injection, schedule: Q01DX005 (ip), vehicle: Klucel (hydroxypropylcellulose) (HPC)): 86 % of control
T/C (dose: 240.0 mg/kg/injection, schedule: Q01DX005 (ip), vehicle: Klucel (hydroxypropylcellulose) (HPC)): 95 % of control

O/N=C/c1cc[n+](CCC[n+]2ccc(/C=N/O)cc2)cc1
T/C (dose: 5.0 mg/kg/injection, schedule: Q01DX009 (ip), vehicle: saline): 100 % of control
T/C (dose: 10.0 mg/kg/injection, schedule: Q01DX009 (ip), vehicle: saline): 90 % of control
T/C (dose: 20.0 mg/kg/injection, schedule: Q01DX009 (ip), vehicle: saline): 100 % of control

CNCC(=O)NC(CO)C(=O)NC(CO)C(=O)NC1C(C(N)=O)OC(n2ccc(N)nc2=O)C(O)C1O (stereo not drawn)
T/C (dose: 0.1 mg/kg/injection, schedule: Q01DX009 (ip), vehicle: water): 101 % of control
T/C (dose: 0.2 mg/kg/injection, schedule: Q01DX009 (ip), vehicle: water): 100 % of control
T/C (dose: 0.4 mg/kg/injection, schedule: Q01DX009 (ip), vehicle: water): 117 % of control
T/C (dose: 0.8 mg/kg/injection, schedule: Q01DX009 (ip), vehicle: water): 95 % of control

COc1cccc(O)c1O
T/C [16]: 101 % of control
T/C [17]: 100 % of control
T/C (dose: 400.0 mg/kg/injection, schedule: Q01DX009 (ip), vehicle: saline): 111 % of control

O=C(O)c1cc(Nc2ccnc3cc(Cl)ccc23)ccc1O
T/C (dose: 100.0 mg/kg/injection, schedule: Q04DX002 (ip), vehicle: saline with Tween-80): 98 % of control
T/C (dose: 200.0 mg/kg/injection, schedule: Q04DX002 (ip), vehicle: saline with Tween-80): 97 % of control
T/C (dose: 400.0 mg/kg/injection, schedule: Q04DX002 (ip), vehicle: saline with Tween-80): 98 % of control

CC1(C)CC(OP2(=O)NCCCO2)CC(C)(C)N1O (stereo not drawn)
T/C (dose: 27.5 mg/kg/injection, schedule: Q01DX001 (ip), vehicle: saline): 150 % of control
T/C (dose: 55.0 mg/kg/injection, schedule: Q01DX001 (ip), vehicle: saline): 165 % of control
